Laboratory results published in patent publication US20240325424A1, “Pharmaceutical Compositions And Methods For Treating Neoplasia” (priority 2021, published 2024).
≈ marks a conversion by molar mass, not a printed value.

Tests used:
Influenza A H1N1 = test: antiviral test Influenza A H1N1; type: cell-based; conditions: Influenza A virus
[1] = system: seasonal influenza A(H3N2) virus; conditions: To et al. (2016); cited from earlier work
Norovirus = Norovirus test; type: cell-based
[2] = system: avian-origin influenza A (H7N9); conditions: cited from earlier work
a virus = conditions: virus of Chan et al., 2013, p. 612; cited from earlier work
RSV = test: antiviral test RSV; type: cell-based; conditions: human respiratory syncytial virus
[3] = system: pandemic flu H1/415, A/Hong Kong/415742/2009, A(H1N1)pdm09; conditions: To et al. (2016); cited from earlier work

**Q.** What does the source list for `COc1c(C)c2c(c(O)c1C/C=C(\C)CCC(=O)O)C(=O)OC2` [mycophenolic acid, 6-(4-hydroxy-6-methoxy-7-methyl-3-oxo-1,3-dihydroisobenzofuran-5-yl)-4-methyl-hex-4-enoic acid]?
**A.** EC50 (Influenza A H1N1): < 0.1 µg/mL; effectiveness against virus [1]: effective; EC50 (Norovirus): 0.151 µg/mL (≈ 0.471 µM); effectiveness against virus [2]: effective; EC50 (a virus): 0.17 µg/mL (≈ 0.531 µM); EC50 (RSV): < 0.1 µg/mL; effectiveness against virus [3]: effective
